The target in series [1] is T1, SLCO1B1 (Homo sapiens, UniProt Q9Y6L6).
T1 sequence (Q9Y6L6 1-691): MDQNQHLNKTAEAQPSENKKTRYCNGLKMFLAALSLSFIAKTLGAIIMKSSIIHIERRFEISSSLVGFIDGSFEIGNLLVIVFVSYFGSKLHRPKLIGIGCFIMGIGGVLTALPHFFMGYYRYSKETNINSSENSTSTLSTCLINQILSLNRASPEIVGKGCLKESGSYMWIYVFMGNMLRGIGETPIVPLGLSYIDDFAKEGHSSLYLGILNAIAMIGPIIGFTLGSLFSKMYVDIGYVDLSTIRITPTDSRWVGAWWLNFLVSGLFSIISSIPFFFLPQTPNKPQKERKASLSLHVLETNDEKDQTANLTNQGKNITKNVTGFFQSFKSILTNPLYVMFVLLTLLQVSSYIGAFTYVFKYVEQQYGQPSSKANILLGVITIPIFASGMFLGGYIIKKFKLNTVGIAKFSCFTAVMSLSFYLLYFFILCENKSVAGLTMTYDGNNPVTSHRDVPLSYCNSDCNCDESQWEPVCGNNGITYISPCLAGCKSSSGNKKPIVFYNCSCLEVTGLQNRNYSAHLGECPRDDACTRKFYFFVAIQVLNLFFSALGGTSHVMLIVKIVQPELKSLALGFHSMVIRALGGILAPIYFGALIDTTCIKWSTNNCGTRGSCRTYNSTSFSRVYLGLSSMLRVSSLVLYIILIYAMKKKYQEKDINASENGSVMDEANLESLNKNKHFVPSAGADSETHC
Particulars: HEK293-SLCO1B1 vs HEK293, 10 µM.

Series [2] deals with hemispheric ischemic stroke. Details: method as in doi:10.1007/s11055-018-0652-y. Particulars: 151 patients with hemispheric ischemic stroke; cited from earlier work.

Structures are written as SMILES.

Take `CCc1nc(C)ccc1O.O=C(O)CCC(=O)O` [EMHPS, 2-Ethyl-6-methyl-3-hydroxypyridine succinate]: the “substrate of SLCO1B1” value in series [1] is “not a substrate of SLCO1B1”. Further, the “neurological status compared with the placebo” value in series [2] is reported as “improved the neurological status”.

These data come from PMC10674565 (Pharmaceuticals, 2023).
